{"source": "patent US20100068786A1", "about": "“METHODS AND COMPOSITIONS FOR REVERSING P-GLYCOPROTEIN MEDICATED DRUG RESISTANCE” (priority 2008, published 2010)", "key": {"MCF-7/DX1": {"tested_on": "MCF-7/DX1", "conditions": "MCF-7/DX1 vs MCF-7 cells; cited from earlier work"}, "P-gp [1]": {"molecular_target": "T1, P-gp (Mus musculus, UniProt P21447)", "T1 construct": "A comparison of P-gp knock-out mice to their wild-type counterparts; host or cells: mouse, in vivo (blood-brain barrier)", "T1 sequence (P21447 whole entry)": "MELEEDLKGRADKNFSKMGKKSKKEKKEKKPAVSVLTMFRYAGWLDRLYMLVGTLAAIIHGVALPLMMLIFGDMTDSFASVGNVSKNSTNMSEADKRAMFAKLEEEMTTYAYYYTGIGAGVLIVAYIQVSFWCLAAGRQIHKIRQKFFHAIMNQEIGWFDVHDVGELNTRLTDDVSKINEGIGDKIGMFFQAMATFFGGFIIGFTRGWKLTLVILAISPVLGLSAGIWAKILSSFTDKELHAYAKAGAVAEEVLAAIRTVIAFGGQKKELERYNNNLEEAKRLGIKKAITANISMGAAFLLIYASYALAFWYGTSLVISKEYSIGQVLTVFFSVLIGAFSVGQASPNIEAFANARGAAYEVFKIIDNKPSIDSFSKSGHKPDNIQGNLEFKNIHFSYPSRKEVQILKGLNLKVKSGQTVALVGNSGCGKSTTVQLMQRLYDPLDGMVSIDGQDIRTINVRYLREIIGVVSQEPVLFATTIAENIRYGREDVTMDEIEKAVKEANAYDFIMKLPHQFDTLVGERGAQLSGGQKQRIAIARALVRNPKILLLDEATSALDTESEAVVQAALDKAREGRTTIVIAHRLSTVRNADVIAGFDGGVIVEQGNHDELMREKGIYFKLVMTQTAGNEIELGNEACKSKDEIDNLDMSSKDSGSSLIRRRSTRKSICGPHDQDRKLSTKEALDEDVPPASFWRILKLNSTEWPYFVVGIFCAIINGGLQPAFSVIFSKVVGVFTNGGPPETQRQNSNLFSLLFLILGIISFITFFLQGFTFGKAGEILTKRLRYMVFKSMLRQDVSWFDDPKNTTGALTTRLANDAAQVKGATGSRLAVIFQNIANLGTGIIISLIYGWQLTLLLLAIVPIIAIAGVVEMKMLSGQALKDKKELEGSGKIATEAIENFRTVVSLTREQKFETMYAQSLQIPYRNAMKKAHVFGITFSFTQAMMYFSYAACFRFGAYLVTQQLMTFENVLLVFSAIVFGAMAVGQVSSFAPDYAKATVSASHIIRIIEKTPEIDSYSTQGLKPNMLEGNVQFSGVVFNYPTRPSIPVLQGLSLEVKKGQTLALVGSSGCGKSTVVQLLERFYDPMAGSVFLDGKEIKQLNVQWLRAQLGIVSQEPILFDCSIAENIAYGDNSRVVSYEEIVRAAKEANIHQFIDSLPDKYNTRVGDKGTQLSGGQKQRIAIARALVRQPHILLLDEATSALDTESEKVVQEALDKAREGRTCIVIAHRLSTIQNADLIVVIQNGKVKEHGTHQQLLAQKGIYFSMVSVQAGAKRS", "conditions": "co-administration in mice of P-gp inhibitor LY335979 and nelfinavir; cited from earlier work"}, "P-gp [2]": {"molecular_target": "T1, P-gp", "conditions": "P-gp knock-out mice vs wild-type; cited from earlier work"}, "MCF-7/DX1 cells": {"tested_on": "MCF-7/DX1 cells", "assay": "MTT cell viability assay, reversal of taxol resistance", "format": "cell-based, human", "conditions": "P-gp over-expressing MCF-7/DX1 cell line, FIG. 8", "protocol": "The inhibition of P-gp transport was evaluated with the prodrug dimers and monomer controls in the human carcinoma MCF7-DX1 cell line.\nThe P-gp-mediated multidrug resistance phenotype of cancer cells is characterized by the ability of cells to evade the cytotoxic effects of drugs that are substrates of P-gp and remain viable even at high extracellular drugs concentrations. One such compound is the cytostatic agent taxol, which is also a known P-gp substrate (Horwitz et al., 1993). Cells lines that over-express P-gp, such as the MCF-7/DX1 cell line, display a 3000-fold decrease in susceptibility to taxol (FIG. 8)."}, "[3]": {"tested_on": "implanted human glioblastomas", "conditions": "cited from earlier work"}}, "data": [{"smiles": "COc1cccc2c1C(=O)c1c(O)c3c(c(O)c1C2=O)C[C@@](O)(C(=O)CO)C[C@@H]3O[C@H]1C[C@H](N)[C@H](O)[C@H](C)O1", "note": "[doxorubicin]", "values": [{"measurement": "resistance to doxorubicin", "setting": "MCF-7/DX1", "value": 200, "unit": "fold"}]}, {"smiles": "Cc1c(O)cccc1C(=O)N[C@@H](CSc1ccccc1)[C@H](O)CN1C[C@H]2CCCC[C@H]2C[C@H]1C(=O)NC(C)(C)C", "note": "[nelfinavir]", "values": [{"measurement": "increase in the level of the therapeutic agent in the brain", "setting": "P-gp [1]", "value": 25, "unit": "fold"}, {"measurement": "increase in brain penetration", "setting": "P-gp [2]", "value": 40, "unit": "fold"}]}, {"smiles": "CC(C)(C)NC(=O)[C@@H]1C[C@@H]2CCCC[C@@H]2CN1C[C@@H](O)[C@H](Cc1ccccc1)NC(=O)[C@H](CC(N)=O)NC(=O)c1ccc2ccccc2n1", "note": "[saquinavir]", "values": [{"measurement": "increase in brain penetration", "setting": "P-gp [2]", "value": 10, "unit": "fold"}]}, {"smiles": "CC(=O)O[C@H]1C(=O)[C@@]2(C)[C@H]([C@H](OC(=O)c3ccccc3)[C@]3(O)C[C@H](OC(=O)[C@H](O)[C@@H](NC(=O)c4ccccc4)c4ccccc4)C(C)=C1C3(C)C)[C@]1(OC(C)=O)CO[C@@H]1C[C@@H]2O", "note": "[taxol, paclitaxel]", "values": [{"measurement": "decrease in susceptibility to taxol", "setting": "MCF-7/DX1 cells", "value": 3000, "unit": "fold"}, {"measurement": "reduction of growth of implanted human glioblastomas", "setting": "[3]; co-administration of paclitaxel with valspodar (PSC833) in mice", "value": 90, "unit": "%"}, {"measurement": "effect on tumor size", "setting": "[3]; treatment with either drug alone, mice", "value": "no effect"}]}]}
